Laboratory results from patent US20170067014A1, “METHOD FOR GENERATING CELL CONDENSATE FOR SELF-ORGANIZATION” (PUBLIC UNIVERSITY CORPORATION YOKOHAMA CITY UNIVERSITY, priority 2014, published 2017).

These molecules were tested on condensate formation in cocultures of iPSC-hepatic endoderm cells, HUVECs and MSCs (assay: Inhibitory experiment against cell condensate formation using chemical substances). Details: addition to the cocultures.
Format: cell-based, human
Source text: Hepatic endoderm cells derived from human induced pluripotent stem cells (iPSCs), umbilical cord-derived endothelial cells (HUVECs), and mesenchymal stem cells (MSCs) were labeled with distinctive fluorescent markers and cocultured on a solidified matrix gel which was already described. […] To elucidate dynamics of such condensate formation in more detail, the present inventors examined the temporal development of the position of the edge of the cell condensate (square root of cell area) and circularity by image analysis (FIG. 1b).
On each well of a 24-well plate on which PA gel planar substrate was placed or to which Matrigel coating [Matrigel (BD) either in stock solution or as a mixture with medium at 1:1 was poured at 300 μl/well and left to stand in a 37° C., 5% CO2 incubator for 10 min until it solidified] was applied, 2×10^6 cells or more of multiple types in any combination (tissues isolated from embryo or adult, or KO-HepG2, HUVEC, etc.) as mixed with 2×10^5 MSCs were seeded. In order to form small-sized cell condensates, 4×10^3 cells or more of multiple types in any combination (tissues isolated from embryo or adult, or KO-HepG2, HUVEC) were mixed with 5×10^3 or more MSCs and seeded. In either case, the cells were subsequently cultured in a 37° C. incubator for a day. After seeding, chronological observation of cell coculture was performed with a stereomicroscope or a confocal microscope.
For `c1cc(CN2CCCNCCNCCCNCC2)ccc1CN1CCCNCCNCCCNCC1` [AMD3100], the “effect on condensate formation” value was “could not hinder”.
In the case of `C[C@@H](N)[C@H]1CC[C@H](C(=O)Nc2ccncc2)CC1` [Sample Y-27632], the “effect on condensate formation” value is reported as “partially delayed”.
`Cc1ccc2c(c1)C(=O)C1(O)CCN(c3ccccc3)C1=N2` (stereo not drawn) [blebbistatin] was tested, and the “effect on condensate formation” value was “completely antagonized”.
